Reference: US20260028326A1, “COMPOUND BASED ON ISOINDOLINE-SUBSTITUTED GLUTARIMIDE BACKBONE AND USE THEREOF” (GLUETACS THERAPEUTICS (SHANGHAI) CO., LTD., priority 2022, published 2026)
Blank lines part the entries; values can stand above or below the compound they belong to.

Key:
[1] = biological target: human Cereblon WT GST-tagged protein (Homo sapiens (Human), UniProt Q96SW2); assay: CRBN-binding affinity, HTRF (CEREBLON BINDING kit)
Method in brief: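 HTRF competition readout: compounds compete with a thalidomide-Re conjugate for GST-tagged wild-type human CRBN detected via Eu-labelled anti-GST antibody. Inhibition rate derived relative to protein-free blank wells.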

GSPT1 protein = GSPT1 protein (Homo sapiens (Human), UniProt P15170+Q96SW2); assay: Western-blot assay of substrate protein degradation in hPBMC, GSPT1; format: cell-based; settings: hPBMC cells, compound 500 nM, 24 hours, Western blot
Protocol: (§1) After treating the cells with the compounds for 24 hours, the cells were collected and lysed using RIPA protein lysate containing phosphatase inhibitors. The lysate was then placed on ice for 30-60 minutes and centrifuged. The supernatant was aspirated as the extracted total cell protein. The protein concentration of the supernatant was determined using the conventional BCA (Bicinchoninic Acid) assay. The supernatant was then mixed with 4×SDS sample loading buffer, denatured at 95° C. for 5 minutes, and then subjected to SDS-PAGE electrophoresis on a polyacrylamide gel, followed by transfer to a nitrocellulose membrane (NC membrane). The membrane was blocked with blocking buffer at room temperature for 1-2 hours, and then antibody incubation and detection were carried out according to the antibody instructions provided by Cell Signaling Technology.
(§2) Half-Maximal Degradation Concentration value (the drug concentration required for degrading proteins by 50%, abbreviated as DC50) reads method: comparing the gray values of the Western blotting bands for the drug treatment with the gray values of the Western blotting band for the DMSO control, and reading the drug concentration range corresponding to the gray value of the Western blotting bands for the drug treatment which is equal to half of the gray value of the Western blotting band for the DMSO control.
(§3) DC50 value could also be calculated as follows: using software ImageJ to quantify the gray values of the Western blotting bands for the drug treatment, fitting the relationship curve between drug concentrations and gray values, and from the fitted curve, calculating the drug concentration corresponding to half of the gray value of the Western blotting band for the DMSO control.

IKZF1 protein = IKZF1 protein (Homo sapiens (Human), UniProt Q13422+Q96SW2); assay: Western-blot assay of substrate protein degradation in hPBMC, IKZF1; format: cell-based; settings: hPBMC cells, compound 500 nM, 24 hours, Western blot
Protocol: as §1, §2, §3

IKZF3 protein = IKZF3 protein (Homo sapiens (Human), UniProt Q96SW2+Q9UKT9); assay: Western-blot assay of substrate protein degradation in hPBMC, IKZF3; format: cell-based; settings: hPBMC cells, compound 500 nM, 24 hours, Western blot
Protocol: as §1, §2, §3

Sequence of IKZF3 protein (Q9UKT9 whole entry): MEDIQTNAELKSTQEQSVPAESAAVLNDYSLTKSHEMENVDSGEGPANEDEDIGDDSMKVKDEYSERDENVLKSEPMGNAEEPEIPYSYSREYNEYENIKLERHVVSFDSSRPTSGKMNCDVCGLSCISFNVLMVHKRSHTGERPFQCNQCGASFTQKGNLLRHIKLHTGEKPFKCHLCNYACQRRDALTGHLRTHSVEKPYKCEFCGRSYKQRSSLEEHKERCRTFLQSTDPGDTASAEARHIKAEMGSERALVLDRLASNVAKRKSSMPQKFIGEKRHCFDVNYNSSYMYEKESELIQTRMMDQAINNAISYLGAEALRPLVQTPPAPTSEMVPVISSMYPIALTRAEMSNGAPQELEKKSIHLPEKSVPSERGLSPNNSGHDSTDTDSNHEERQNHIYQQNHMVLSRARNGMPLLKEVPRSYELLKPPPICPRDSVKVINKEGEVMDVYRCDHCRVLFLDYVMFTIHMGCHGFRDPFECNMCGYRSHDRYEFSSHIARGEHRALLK
Sequence of IKZF3 protein (Q96SW2 whole entry): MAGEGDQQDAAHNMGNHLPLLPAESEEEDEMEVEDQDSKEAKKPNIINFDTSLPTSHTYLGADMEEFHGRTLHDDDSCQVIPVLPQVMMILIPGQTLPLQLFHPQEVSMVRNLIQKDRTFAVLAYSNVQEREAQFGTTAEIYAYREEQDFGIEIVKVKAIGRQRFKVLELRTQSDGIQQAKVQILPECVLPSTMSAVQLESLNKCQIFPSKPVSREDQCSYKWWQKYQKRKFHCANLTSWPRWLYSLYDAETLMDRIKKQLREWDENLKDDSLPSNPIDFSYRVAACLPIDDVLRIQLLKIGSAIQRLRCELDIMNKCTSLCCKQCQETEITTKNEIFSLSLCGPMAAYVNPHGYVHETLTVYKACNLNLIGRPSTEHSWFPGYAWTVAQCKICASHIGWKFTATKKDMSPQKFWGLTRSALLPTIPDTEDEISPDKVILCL
Sequence of IKZF3 protein (Q16531 whole entry partner): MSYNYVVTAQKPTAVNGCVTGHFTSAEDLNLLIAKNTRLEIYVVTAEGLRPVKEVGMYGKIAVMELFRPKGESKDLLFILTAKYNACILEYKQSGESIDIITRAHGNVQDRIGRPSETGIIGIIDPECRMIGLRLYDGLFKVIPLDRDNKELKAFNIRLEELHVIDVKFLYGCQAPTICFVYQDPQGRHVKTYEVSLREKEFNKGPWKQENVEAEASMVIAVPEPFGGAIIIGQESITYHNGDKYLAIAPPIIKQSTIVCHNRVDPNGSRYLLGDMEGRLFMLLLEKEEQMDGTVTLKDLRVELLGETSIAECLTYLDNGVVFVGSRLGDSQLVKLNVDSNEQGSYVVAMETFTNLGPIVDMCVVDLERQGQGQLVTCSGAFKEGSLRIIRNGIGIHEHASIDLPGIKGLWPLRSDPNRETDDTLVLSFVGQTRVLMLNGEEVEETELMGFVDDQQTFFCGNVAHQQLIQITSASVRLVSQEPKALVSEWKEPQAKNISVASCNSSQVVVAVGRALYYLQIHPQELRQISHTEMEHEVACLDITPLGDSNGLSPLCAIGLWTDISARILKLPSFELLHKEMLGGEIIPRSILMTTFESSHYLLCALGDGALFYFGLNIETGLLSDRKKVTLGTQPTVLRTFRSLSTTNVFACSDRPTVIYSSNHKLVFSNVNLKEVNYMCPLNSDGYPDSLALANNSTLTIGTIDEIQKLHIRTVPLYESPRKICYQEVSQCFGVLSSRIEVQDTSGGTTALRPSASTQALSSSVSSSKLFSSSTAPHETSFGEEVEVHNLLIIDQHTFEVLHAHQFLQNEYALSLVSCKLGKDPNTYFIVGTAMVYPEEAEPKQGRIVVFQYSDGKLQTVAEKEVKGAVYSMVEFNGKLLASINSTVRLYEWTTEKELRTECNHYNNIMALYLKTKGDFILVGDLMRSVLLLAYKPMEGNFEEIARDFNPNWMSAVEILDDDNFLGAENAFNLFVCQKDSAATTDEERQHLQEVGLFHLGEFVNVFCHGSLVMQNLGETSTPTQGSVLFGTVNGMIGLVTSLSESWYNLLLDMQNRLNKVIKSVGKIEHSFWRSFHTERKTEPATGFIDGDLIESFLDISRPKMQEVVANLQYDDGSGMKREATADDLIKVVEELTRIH
Sequence of GSPT1 protein (P15170 whole entry): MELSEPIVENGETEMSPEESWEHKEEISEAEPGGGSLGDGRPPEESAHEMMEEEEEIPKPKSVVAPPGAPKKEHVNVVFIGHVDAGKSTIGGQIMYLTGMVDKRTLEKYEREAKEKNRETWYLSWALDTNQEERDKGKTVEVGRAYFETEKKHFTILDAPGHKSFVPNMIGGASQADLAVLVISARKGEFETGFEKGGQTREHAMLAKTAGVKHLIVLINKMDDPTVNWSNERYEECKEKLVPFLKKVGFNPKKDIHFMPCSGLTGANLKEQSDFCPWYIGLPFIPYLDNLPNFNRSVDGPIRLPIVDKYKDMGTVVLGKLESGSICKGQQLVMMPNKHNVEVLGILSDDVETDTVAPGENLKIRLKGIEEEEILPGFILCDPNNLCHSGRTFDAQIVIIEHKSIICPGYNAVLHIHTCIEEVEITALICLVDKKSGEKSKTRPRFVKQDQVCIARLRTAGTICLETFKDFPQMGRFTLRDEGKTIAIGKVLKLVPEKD
Sequence of GSPT1 protein (Q96SW2 whole entry): as the sequence (Q96SW2 whole entry) above
Sequence of GSPT1 protein (Q16531 whole entry partner): as the sequence (Q16531 whole entry partner) above
Sequence of human Cereblon WT GST-tagged protein (Q96SW2 whole entry): as the sequence (Q96SW2 whole entry) above
Sequence of IKZF1 protein (Q13422 whole entry): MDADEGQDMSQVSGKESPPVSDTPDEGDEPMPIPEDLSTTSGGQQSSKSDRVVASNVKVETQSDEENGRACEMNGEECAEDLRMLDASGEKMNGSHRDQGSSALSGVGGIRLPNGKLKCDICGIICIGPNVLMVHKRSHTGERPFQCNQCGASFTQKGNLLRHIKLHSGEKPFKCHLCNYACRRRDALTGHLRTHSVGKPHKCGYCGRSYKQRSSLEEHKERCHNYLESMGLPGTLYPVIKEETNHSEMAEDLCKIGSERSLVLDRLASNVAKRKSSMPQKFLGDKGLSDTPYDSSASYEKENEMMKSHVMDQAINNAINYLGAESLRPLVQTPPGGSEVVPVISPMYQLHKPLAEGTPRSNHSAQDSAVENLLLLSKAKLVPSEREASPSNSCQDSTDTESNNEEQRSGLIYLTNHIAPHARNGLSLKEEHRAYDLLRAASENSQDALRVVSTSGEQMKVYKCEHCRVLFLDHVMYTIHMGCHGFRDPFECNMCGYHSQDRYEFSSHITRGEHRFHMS
Sequence of IKZF1 protein (Q96SW2 whole entry): as the sequence (Q96SW2 whole entry) above
Sequence of IKZF1 protein (Q16531 whole entry partner): as the sequence (Q16531 whole entry partner) above

Structure (SMILES): CC1(C)CCC(CN2CC3CC(C2)N3Cc2ccc3c(c2F)CN(C2CCC(=O)NC2=O)C3=O)=C(c2ccc(Cl)cc2)C1 (centres unmarked) [GT-03493, 3-(5-((3-((4′-chloro-5,5-dimethyl-3,4,5,6-tetrahydro-[1,1′-biphenyl]-2-yl)methyl)-3,6-diazabicyclo[3.1.1]heptan-6-yl)methyl)-4-fluoro-1-oxoisoindolin-2-yl)piperidine-2,6-dione]
IC50 [1]: 750 nM | residual substrate protein level, GSPT1 (GSPT1 protein): A (A represents a residual substrate protein level of <50%) | residual substrate protein level, IKZF1 (IKZF1 protein): A (A represents a residual substrate protein level of <50%) | residual substrate protein level, IKZF3 (IKZF3 protein): A (A represents a residual substrate protein level of <50%)

Structure (SMILES): CC1(C)CCC(CN2CC3CCC(C2)N3Cc2ccc3c(c2)C(=O)N(C2CCC(=O)NC2=O)C3=O)=C(c2ccc(Cl)cc2)C1 (centres unmarked) [GT-04719, 5-((3-((4′-chloro-5,5-dimethyl-3,4,5,6-tetrahydro-[1,1′-biphenyl]-2-yl)methyl)-3,8-diazabicyclo[3.2.1]octan-8-yl)methyl)-2-(2,6-dioxopiperidin-3-yl)isoindoline-1,3-dione]
residual substrate protein level, GSPT1 (GSPT1 protein): A (A represents a residual substrate protein level of <50%) | residual substrate protein level, IKZF1 (IKZF1 protein): B (B represents a residual substrate protein level of >50%) | residual substrate protein level, IKZF3 (IKZF3 protein): B (B represents a residual substrate protein level of >50%)

Structure (SMILES): CC1(C)CCC(CN2CC3CCC2CN3C(=O)c2ccc3c(c2)C(=O)N(C2CCC(=O)NC2=O)C3=O)=C(c2ccc(Cl)cc2)C1 (centres unmarked) [GT-05414, 5-(5-((4′-chloro-5,5-dimethyl-3,4,5,6-tetrahydro-[1,1′-biphenyl]-2-yl)methyl)-2,5-diazabicyclo[2.2.2]octane-2-carbonyl)-2-(2,6-dioxopiperidin-3-yl)isoindoline-1,3-dione]
residual substrate protein level, GSPT1 (GSPT1 protein): B (B represents a residual substrate protein level of >50%) | residual substrate protein level, IKZF1 (IKZF1 protein): B (B represents a residual substrate protein level of >50%) | residual substrate protein level, IKZF3 (IKZF3 protein): A (A represents a residual substrate protein level of <50%)

Structure (SMILES): CC1(C)CCC(CN2CC3CCC(C2)N3c2ccc3c(c2)CN(C2CCC(=O)NC2=O)C3=O)=C(c2ccc(Cl)cc2)C1 (centres unmarked) [GT-05430, 3-(5-(3-((4′-chloro-5,5-dimethyl-3,4,5,6-tetrahydro-[1,1′-biphenyl]-2-yl)methyl)-3,8-diazabicyclo[3.2.1]octan-8-yl)-1-oxoisoindolin-2-yl)piperidine-2,6-dione]
residual substrate protein level, GSPT1 (GSPT1 protein): A (A represents a residual substrate protein level of <50%) | residual substrate protein level, IKZF1 (IKZF1 protein): B (B represents a residual substrate protein level of >50%) | residual substrate protein level, IKZF3 (IKZF3 protein): B (B represents a residual substrate protein level of >50%)

Structure (SMILES): O=C1CCC(N2C(=O)c3ccc(CN4CCN(CC5=C(c6ccc(F)cc6)CCCC5)CC4)cc3C2=O)C(=O)N1 (centres unmarked) [GT-05464, 2-(2,6-dioxopiperidin-3-yl)-5-((4-((4′-fluoro-3,4,5,6-tetrahydro-[1,1′-biphenyl]-2-yl)methyl)piperazin-1-yl)methyl)isoindoline-1,3-dione]
residual substrate protein level, GSPT1 (GSPT1 protein): B (B represents a residual substrate protein level of >50%) | residual substrate protein level, IKZF1 (IKZF1 protein): B (B represents a residual substrate protein level of >50%) | residual substrate protein level, IKZF3 (IKZF3 protein): A (A represents a residual substrate protein level of <50%)

Structure (SMILES): CC1(C)CCC(CN2CC3CC2CN3Cc2ccc3c(c2)C(=O)N(C2CCC(=O)NC2=O)C3=O)=C(c2ccc(Cl)cc2)C1 (centres unmarked) [GT-05533, 5-((5-((4′-chloro-5,5-dimethyl-3,4,5,6-tetrahydro-[1,1′-biphenyl]-2-yl)methyl)-2,5-diazabicyclo[2.2.1]heptan-2-yl)methyl)-2-(2,6-dioxopiperidin-3-yl)isoindoline-1,3-dione]
residual substrate protein level, GSPT1 (GSPT1 protein): A (A represents a residual substrate protein level of <50%) | residual substrate protein level, IKZF1 (IKZF1 protein): A (A represents a residual substrate protein level of <50%) | residual substrate protein level, IKZF3 (IKZF3 protein): A (A represents a residual substrate protein level of <50%)

Structure (SMILES): O=C1CCC(N2C(=O)c3ccc(C(=O)N4CCN(Cc5ccc(-c6ccc(Cl)cc6)cc5)CC4)cc3C2=O)C(=O)N1 (centres unmarked) [GT-05600, 5-(4-((4′-chloro-[1,1′-biphenyl]-4-yl)methyl)piperazine-1-carbonyl)-2-(2,6-dioxopiperidin-3-yl)isoindoline-1,3-dione]
residual substrate protein level, GSPT1 (GSPT1 protein): A (A represents a residual substrate protein level of <50%) | residual substrate protein level, IKZF1 (IKZF1 protein): B (B represents a residual substrate protein level of >50%) | residual substrate protein level, IKZF3 (IKZF3 protein): B (B represents a residual substrate protein level of >50%)

Structure (SMILES): O=C1CCC(N2C(=O)c3ccc(CN4CCN(Cc5cccc(-c6ccc(Cl)cc6)c5)CC4)cc3C2=O)C(=O)N1 (centres unmarked) [GT-05630, 5-((4-((4′-chloro-[1,1′-biphenyl]-3-yl)methyl)piperazin-1-yl)methyl)-2-(2,6-dioxopiperidin-3-yl)isoindoline-1,3-dione]
residual substrate protein level, GSPT1 (GSPT1 protein): B (B represents a residual substrate protein level of >50%) | residual substrate protein level, IKZF1 (IKZF1 protein): B (B represents a residual substrate protein level of >50%) | residual substrate protein level, IKZF3 (IKZF3 protein): A (A represents a residual substrate protein level of <50%)

Structure (SMILES): CC1(C)CCC(CN2CC3(C2)CN(Cc2ccc4c(c2)C(=O)N(C2CCC(=O)NC2=O)C4=O)C3)=C(c2ccc(Cl)cc2)C1 (centres unmarked) [GT-05675, 5-((6-((4′-chloro-5,5-dimethyl-3,4,5,6-tetrahydro-[1,1′-biphenyl]-2-yl)methyl)-2,6-diazaspiro[3.3]heptan-2-yl)methyl)-2-(2,6-dioxopiperidin-3-yl)isoindoline-1,3-dione]
residual substrate protein level, GSPT1 (GSPT1 protein): B (B represents a residual substrate protein level of >50%) | residual substrate protein level, IKZF1 (IKZF1 protein): B (B represents a residual substrate protein level of >50%) | residual substrate protein level, IKZF3 (IKZF3 protein): B (B represents a residual substrate protein level of >50%)

IC50 [1]: 940 nM
Structure (SMILES): CC1(C)CCC(CN2CC3CCC2CN3C(=O)c2ccc3c(c2)CN(C2CCC(=O)NC2=O)C3=O)=C(c2ccc(Cl)cc2)C1 (centres unmarked) [GT-05795, 3-(5-(5-((4′-chloro-5,5-dimethyl-3,4,5,6-tetrahydro-[1,1′-biphenyl]-2-yl)methyl)-2,5-diazabicyclo[2.2.2]octane-2-carbonyl)-1-oxoisoindolin-2-yl)piperidine-2,6-dione]

IC50 [1]: 1290 nM
Structure (SMILES): O=C1CCC(N2Cc3c(CN4CCN(CC5=C(c6ccc(F)cc6)CCCC5)CC4)cccc3C2=O)C(=O)N1 (centres unmarked) [GT-05861, 3-(4-((4-((4′-fluoro-3,4,5,6-tetrahydro-[1,1′-biphenyl]-2-yl)methyl)piperazin-1-yl)methyl)-1-oxoisoindolin-2-yl)piperidine-2,6-dione]

IC50 [1]: 1020 nM
Structure (SMILES): O=C1CCC(N2Cc3cc(C(=O)N4CCN(CC5=C(c6ccc(F)cc6)CCCC5)CC4)ccc3C2=O)C(=O)N1 (centres unmarked) [GT-05863, 3-(5-(4-((4′-fluoro-3,4,5,6-tetrahydro-[1,1′-biphenyl]-2-yl)methyl)piperazine-1-carbonyl)-1-oxoisoindolin-2-yl)piperidine-2,6-dione]

IC50 [1]: 440 nM
Structure (SMILES): O=C1CCC(N2Cc3cc(-c4ccc(CN5CCN(C(=O)c6ccccc6-c6ccc(Cl)cc6)CC5)cc4)ccc3C2=O)C(=O)N1 (centres unmarked) [GT-05874, 3-(5-(4-((4-(4′-chloro-[1,1′-biphenyl]-2-carbonyl)piperazin-1-yl)methyl)phenyl)-1-oxoisoindolin-2-yl)piperidine-2,6-dione]

IC50 [1]: 510 nM
Structure (SMILES): O=C1CCC(N2Cc3cc(N4C5CCC4CN(C(=O)c4ccccc4-c4ccc(Cl)cc4)C5)ccc3C2=O)C(=O)N1 (centres unmarked) [GT-05875, 3-(5-(3-(4′-chloro-[1,1′-biphenyl]-2-carbonyl)-3,8-diazabicyclo[3.2.1]octan-8-yl)-1-oxoisoindolin-2-yl)piperidine-2,6-dione]

IC50 [1]: 120 nM
Structure (SMILES): O=C1CCC(N2Cc3cc(CCN4CCN(Cc5ccccc5-c5ccc(Cl)cc5)CC4)ccc3C2=O)C(=O)N1 (centres unmarked) [GT-05876, 3-(5-(2-(4-((4′-chloro-[1,1′-biphenyl]-2-yl)methyl)piperazin-1-yl)ethyl)-1-oxoisoindolin-2-yl)piperidine-2,6-dione]

IC50 [1]: 1150 nM
Structure (SMILES): O=C1CCC(N2Cc3cc(CCCN4CCN(Cc5ccccc5-c5ccc(Cl)cc5)CC4)ccc3C2=O)C(=O)N1 (centres unmarked) [GT-05893, 3-(5-(3-(4-((4′-chloro-[1,1′-biphenyl]-2-yl)methyl)piperazin-1-yl)propyl)-1-oxoisoindolin-2-yl)piperidine-2,6-dione]

Structure (SMILES): CC1(C)CCC(CN2CCN(Cc3ccc4c(c3)C(=O)N(C3CCC(=O)NC3=O)C4=O)C(C(F)(F)F)C2)=C(c2ccc(Cl)cc2)C1 (centres unmarked) [GT-06103, 5-((4-((4′-chloro-5,5-dimethyl-3,4,5,6-tetrahydro-[1,1′-biphenyl]-2-yl)methyl)-2-(trifluoromethyl)piperazin-1-yl)methyl)-2-(2,6-dioxopiperidin-3-yl)isoindoline-1,3-dione]
residual substrate protein level, GSPT1 (GSPT1 protein): A (A represents a residual substrate protein level of <50%) | residual substrate protein level, IKZF1 (IKZF1 protein): B (B represents a residual substrate protein level of >50%) | residual substrate protein level, IKZF3 (IKZF3 protein): B (B represents a residual substrate protein level of >50%)
